Experimental data taken from US10647665B2, “Biaryl urea derivative or salt thereof and preparation process and use for the same” (Fudan University, priority 2016, dated 2020).
pIC50: −log10 of the molar value.

Columns and labels:
[1] = target: RORγ receptor (B-RORγ LBD) (Homo sapiens (Human), UniProt P51449); experiment: Inhibitory activity on RORγ receptor in vitro by fluorescence resonance energy transfer (FRET); type: biochemical; details: average of at least two independent tests
Method: The inhibitory activity of compounds on RORγ receptor was determined by fluorescence resonance energy transfer (FRET) experiments. The inhibitory activity was expressed by half-inhibitory concentration (IC50).
1. Preparation of RORγ Buffer Solution
10 mL of DTT and 100 mL buffer solution were gently mixed together and ready to use.
2. Preparation of Compound Solution
(§1) 3. Preparation of Protein Mixture a. 40 nM B-RORγ LBD solution and 20 nM SA-APC solution were gently mixed together. The reaction mixture was incubated for 15 minutes at room temperature. Then 400 nM Biotin was added to the described above mixture. After gently mixed together, the resulting mixture was incubated for 10 minutes at room temperature. […]
as §1, with “b.” for “3. Preparation of Protein Mixture a.”, “Bioin-SRC1” for “B-RORγ LBD”, “10” for “20”, “SA-eu” for “SA-APC”, “together, and the” for “together. The”, “200” for “400”
d. A mixture of 0.1 μM alternative agonist
N-(2-chloro-6-fluorophenyl)-N-((20-methoxy-[1,10-biphenylyl]-4-substituted)methyl)benzenesulfonamide, 25 μL B-RORγ LBD/SA-APC and Bioin-SRC1/SA-eu mixture solution with test compound were added to one of the well of a 384-well plate, then they were centrifuged for 1 minute at 1000 rpm, and incubated at room temperature for 1 hour. The values were read on the Envision microplate detector and IC50 was calculated.

[2] = test system: Mouse Th17 cell differentiation; experiment: Inhibition of mouse Th17 cell differentiation (IL-17 by intracellular staining and flow cytometry); type: cell-based; details: compound at 0.3 μM, mouse spleen CD4+ T cells, 96 hours
Method: Experimental method: Mouse spleen CD4^+ T cells were isolated and differentiated into Th17 cells. CD4^+ T cells were cultured in the environment of anti-CD3 (0.25 μg/mL), anti-CD28 (1 μg/mL), anti-IL4 (2 μg/mL), anti-IFN-γ (2 μg/mL), TGF-β (5 ng/mL), and IL6 (20 ng/mL), and then the test compound was added. After 96 hours, the differentiation efficiency of Th17 was analyzed. Before collection of cells, PMA at 50 ng/mL and ionomycin at 500 ng/mL were added for stimulation for 4 hours, and the ratio of IL-17 was detected by intracellular staining and flow cytometry. At the same time, we used Live/Dead Cell Dye (Invitrogen) staining method to analyze the cell survival rate, to judge whether the drug had toxicity to cells, and determine the inhibition rate of the compound at a concentration of 0.3 μM on IL-17 differentiation by Th 17 cells.

RORγ receptor (B-RORγ LBD), sequence (P51449 269-508): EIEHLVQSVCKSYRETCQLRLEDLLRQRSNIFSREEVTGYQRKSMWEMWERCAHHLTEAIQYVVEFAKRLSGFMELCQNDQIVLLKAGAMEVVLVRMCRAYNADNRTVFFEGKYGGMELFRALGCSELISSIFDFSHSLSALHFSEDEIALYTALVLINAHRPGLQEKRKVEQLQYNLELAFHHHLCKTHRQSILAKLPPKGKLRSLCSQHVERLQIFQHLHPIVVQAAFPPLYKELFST

Row | pIC50 [1] | Compound | inhibition at 0.3 µM [2] [%]
1 | > 6.30 | CC(=O)NS(=O)(=O)c1ccc(CNC(=O)Nc2cc(Cl)c(-c3ccccc3OC(F)(F)F)c(Cl)c2)cc1 [Example 1-7, N-((4-((3-(2,6-dichloro-2′-(trifluoromethoxy)-[1,1′-biphen-1,1′-biphenyl]-4-yl)ureido)methyl)phenyl)sulfonyl)acetamide] | 0 to 40
2 | > 6.30 | CNS(=O)(=O)c1ccc(CNC(=O)Nc2cc(Cl)c(-c3ccccc3OC(F)(F)F)c(Cl)c2)cc1 [Example 1-5, 4-((3-(2,6-dichloro-2′-(trifluoromethoxy)-[1,1′-biphenyl]-4-yl)ureido)methyl)-N-methylbenzenesulfonamide] | 70 to 100
3 | 5.30 to 6.30 | O=C(NCc1ccc(C(=O)O)cc1)Nc1cc(Cl)c(-c2ccccc2OC(F)(F)F)c(Cl)c1 [Example 1-14, 4-((3-(2,6-dichloro-2′-(trifluoromethoxy)-[1,1′-biphenyl]-4-yl)ureido)methyl)benzoic acid] | 0 to 40
4 | 5.30 to 6.30 | CCS(=O)(=O)c1ccc(CNC(=O)Nc2ccc(-c3ccccc3OC(F)(F)F)c(Cl)c2)cc1 [Example 1-3, 1-(2-chloro-2′-(trifluoromethoxy)-[1,1′-biphenyl]-4-yl)-3-(4-(ethylsulfonyl)benzyl)urea] | 40 to 70
